Laboratory results published in US20240318160A1 (Wisconsin Alumni Research Foundation, priority 2023, published 2024).

Experiments:
Format in all cases: biochemical
[1] = test system: Joinvillea ascendens JaPAL variant F140H/S112I (JaPAL^F140H_S112I), SEQ ID NO: 145; test: TAL and PAL enzyme kinetics; details: TAL assay (L-Tyr), pH 8.5, 30° C.
Protocol: To test this hypothesis further, the reciprocal S112I mutation was introduced into the JaPAL^F140H single mutant to generate the JaPAL^F140H_S112I double mutant. For comparison, a single mutant in which the residue corresponding to Ser112 was converted to Ile (i.e., JaPAL^S112I) was generated as well.
(§1) A mixture containing 100 mM Tris-HCl (pH 8.5), 1% glycerol, and purified enzyme in a total volume of 50 μl was preincubated for 3 min at 30° C. […] The reactions were terminated by addition of 6N acetic acid (10 μl).
(§2) The kinetic parameters of the recombinant enzymes were determined using HPLC. Reaction mixtures containing 100 mM Tris-HCl (pH 8.5), 1% glycerol, and purified enzyme (0.15 μg for PAL assay and 1 μg for TAL assay) in a 50 μl total volume were preincubated for 3 min at 30° C. […] After 10 min and 20 min incubations for PAL and TAL assay, respectively, at 30° C., the reaction was terminated by addition of 6N acetic acid (10 μl). […] The products were quantified using calibration curves generated using authentic standards. Non-linear hyperbolic regression analyses were conducted using the Excel Solver tool to calculate Km and Vmax values.

[2] = test system: Joinvillea ascendens JaPAL^F140H_MUT8 variant I102V; test: TAL and PAL enzyme kinetics; details: TAL assay (L-Tyr), pH 8.5, 30° C.
Protocol: (§3) To determine which of the 8 circle residues are essential in the conversion of PAL enzymes to PTAL enzymes (FIG. 3C), we mutated, one by one, each one of these 8 residues back to the PAL type in JaPAL^F140H_MUT8 and determined their effects on catalytic efficiency.
as §1, §2

[3] = test system: Joinvillea ascendens JaPAL^F140H_MUT8 variant S267A; test: TAL and PAL enzyme kinetics; details: TAL assay (L-Tyr), pH 8.5, 30° C.
Protocol: as §3, §1, §2

[4] = test system: Joinvillea ascendens JaPAL^F140H_MUT8 variant T444P; test: TAL and PAL enzyme kinetics; details: TAL assay (L-Tyr), pH 8.5, 30° C.
Protocol: as §3, §1, §2

[5] = test system: Joinvillea ascendens JaPAL^F140H_MUT8 variant G121A; test: TAL and PAL enzyme kinetics; details: TAL assay (L-Tyr), pH 8.5, 30° C.
Protocol: as §3, §1, §2

[6] = test system: Joinvillea ascendens JaPAL^F140H_MUT8 variant V500I; test: TAL and PAL enzyme kinetics; details: TAL assay (L-Tyr), pH 8.5, 30° C.
Protocol: as §3, §1, §2

[7] = test system: Joinvillea ascendens JaPAL^F140H_MUT8 variant L138I; test: TAL and PAL enzyme kinetics; details: TAL assay (L-Tyr), pH 8.5, 30° C.
Protocol: as §3, §1, §2

[8] = test system: Joinvillea ascendens JaPAL^F140H_MUT8 variant A448S; test: TAL and PAL enzyme kinetics; details: TAL assay (L-Tyr), pH 8.5, 30° C.
Protocol: as §3, §1, §2

[9] = test system: Joinvillea ascendens JaPAL^F140H_MUT8 variant I122S (in Table 3; I112S in text); test: TAL and PAL enzyme kinetics; details: TAL assay (L-Tyr), pH 8.5, 30° C.
Protocol: as §3, §1, §2

[10] = test system: PAL^F140H mutants (JaPAL^F140H, EmoPAL^F134H, BdPAL^F137H, SbPAL^F135H); test: TAL and PAL enzyme kinetics, group of enzymes; details: TAL activity, range over mutants
Protocol: as §2

[11] = test system: PTAL^H140F mutants (SbPTAL^H123F, BdPTAL^H123F, SaPTAL-a^H118F, SaPTAL-b^H126F, EmoPTAL^H127F, JaPTAL^H125F); test: TAL and PAL enzyme kinetics, group of enzymes; details: TAL activity, range over mutants
From the text: To experimentally test the role of His 140 in the acquisition of TAL activity, we next conducted site-directed mutagenesis on the PAL and PTAL enzymes of grasses and non-grass graminids characterized above and analyzed their effects on TAL activity. For the PAL enzymes, the residue corresponding to Phe 140 was converted to His to generate JaPAL^F140H EmoPAL^F134H, BdPAL^F137H, and SbPAL^F135H. […] For the PTAL enzymes, the residue corresponding to His 140 was converted to Phe to generate SbPTAL^H123F, BdPTAL^H123F, SaPTAL-a^H118F, SaPTAL-b^H126F, EmoPTAL^H127F, and JaPTAL^H125F. […] Thus, unlike in the bacterial TAL enzyme (Watts et al., 2006), other residues besides the His 140 are likely important for the acquisition of strong TAL activity in the PTAL enzymes of grasses and closely-related non-grass graminids.
The kinetic parameters of the recombinant enzymes were determined using HPLC. Reaction mixtures containing 100 mM Tris-HCl (pH 8.5), 1% glycerol, and purified enzyme (0.15 μg for PAL assay and 1 μg for TAL assay) in a 50 μl total volume were preincubated for 3 min at 30° C. PAL and TAL reactions were started by addition of 50 μl substrate solution prepared with 0-4 mM L-Phe and 0-2 mM L-Tyr. After 10 min and 20 min incubations for PAL and TAL assay, respectively, at 30° C., the reaction was terminated by addition of 6N acetic acid (10 μl). […] The products were quantified using calibration curves generated using authentic standards. Non-linear hyperbolic regression analyses were conducted using the Excel Solver tool to calculate Km and Vmax values.

[12] = test system: Streptochaeta angustifolia SaPTAL-a variant H118F (SaPTAL-a^H118F); test: TAL and PAL enzyme kinetics; details: TAL assay (L-Tyr), pH 8.5, 30° C.
Protocol: as §1, §2

[13] = test system: Joinvillea ascendens JaPTAL, wild type, SEQ ID NO: 27; test: TAL and PAL enzyme kinetics; details: TAL assay (L-Tyr), pH 8.5, 30° C.
Protocol: as §1, §2

[14] = test system: Streptochaeta angustifolia SaPTAL-b variant H126F (SaPTAL-b^H126F); test: TAL and PAL enzyme kinetics; details: TAL assay (L-Tyr), pH 8.5, 30° C.
Protocol: as §1, §2

[15] = test system: Ecdeiocolea monostachya EmoPAL variant F134H (EmoPAL^F134H); test: TAL and PAL enzyme kinetics; details: TAL assay (L-Tyr), pH 8.5, 30° C.
Protocol: as §1, §2

[16] = target: Arabidopsis thaliana AtPAL1 variant F144H (AtPAL1^F144H), SEQ ID NO: 261 (Arabidopsis thaliana, UniProt P35510, F144H); test: TAL and PAL enzyme kinetics; details: TAL assay (L-Tyr), pH 8.5, 30° C.
Protocol: as §1, §2

[17] = test system: Sorghum bicolor SbPAL variant F135H (SbPAL^F135H); test: TAL and PAL enzyme kinetics; details: TAL assay (L-Tyr), pH 8.5, 30° C.
Protocol: as §1, §2

[18] = test system: Ecdeiocolea monostachya EmoPTAL variant H127F (EmoPTAL^H127F); test: TAL and PAL enzyme kinetics; details: TAL assay (L-Tyr), pH 8.5, 30° C.
Protocol: as §1, §2

[19] = test system: wild-type PTAL enzymes (SbPTAL, BdPTAL, SaPTAL-a, SaPTAL-b, EmoPTAL, JaPTAL); test: TAL enzyme kinetics, group of enzymes; details: TAL activity (Tyr), range over PTAL enzymes; read-out: apparent Km
Protocol: as §2

Arabidopsis thaliana AtPAL1 variant F144H (AtPAL1^F144H), SEQ ID NO: 261, sequence (P35510 whole entry F144H): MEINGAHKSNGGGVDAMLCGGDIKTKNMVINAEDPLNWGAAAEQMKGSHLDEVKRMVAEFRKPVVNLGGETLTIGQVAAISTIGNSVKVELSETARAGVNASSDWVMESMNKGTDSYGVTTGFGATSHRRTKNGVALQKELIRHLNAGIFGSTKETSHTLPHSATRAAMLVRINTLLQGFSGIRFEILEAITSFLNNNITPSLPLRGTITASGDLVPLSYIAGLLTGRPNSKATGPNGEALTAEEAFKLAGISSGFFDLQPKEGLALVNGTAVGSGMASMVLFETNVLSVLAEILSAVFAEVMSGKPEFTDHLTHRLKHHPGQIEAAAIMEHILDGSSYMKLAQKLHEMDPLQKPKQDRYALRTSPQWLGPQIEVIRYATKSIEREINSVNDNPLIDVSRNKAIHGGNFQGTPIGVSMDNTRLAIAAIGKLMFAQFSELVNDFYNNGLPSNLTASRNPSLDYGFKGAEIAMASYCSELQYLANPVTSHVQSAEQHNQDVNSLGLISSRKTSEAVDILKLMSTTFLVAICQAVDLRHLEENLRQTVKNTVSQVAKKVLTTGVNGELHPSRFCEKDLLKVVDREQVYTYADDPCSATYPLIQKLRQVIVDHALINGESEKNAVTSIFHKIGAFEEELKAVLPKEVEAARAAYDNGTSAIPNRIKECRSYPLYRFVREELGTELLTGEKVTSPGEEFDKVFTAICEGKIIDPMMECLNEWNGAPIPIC

N[C@@H](Cc1ccc(O)cc1)C(=O)O [L-Tyr, tyrosine]
Km [1]: 17.2 ± 0.7 µM | Km [2]: 24.5 ± 1.4 µM | Km [3]: 43.1 ± 1.5 µM | Km [4]: 25.3 ± 2.4 µM | Km [5]: 12.6 ± 0.6 µM | Km [6]: 25.1 ± 3.2 µM | Km [7]: 18.3 ± 0.6 µM | Km [8]: 23.3 ± 1 µM | Km [9]: 282 ± 29 µM | Km [10]: 222 to 450 µM | Km [11]: 531 to 765 µM | Km [12]: 531 ± 13.2 µM | Km [13]: 11 ± 0.4 µM | Km [14]: 724 ± 54.8 µM | Km [15]: 450 ± 14.2 µM | kcat [16]: 0.01 ± 0.00 s⁻¹ | Km [17]: 413 ± 6.5 µM | Km [18]: 614 ± 18.1 µM | Km [19]: 11 to 19 µM
